Source: US20050176691A1, “Combination therapy for the treatment of estrogen-sensitive disease” (priority 2000, published 2005)
Where two headings read alike, the source gives them in different places. Each block holds one compound with its values, some of them ahead of it.

What was measured:
[1] = during combination therapy with tamoxifen; persisted during months; cited from earlier work
[2] = Other effects on ADME or PK (patient factors); settings: in vivo
[3] = Pharmacokinetic profile; format: in vivo
[4] = tested on: primary metabolizing enzyme(s); assay: Metabolism characteristics; format: in vitro ADME
[5] = tested on: estrogen receptor / enzyme (primary endocrine mechanism); assay: Endocrine effect
[6] = Absorption characteristics; settings: in vivo
[7] = tested on: plasma protein; assay: Distribution: plasma protein binding; format: in vitro ADME
[8] = Excretion characteristics; settings: in vivo

Compound: N#Cc1ccc(C(c2ccc(C#N)cc2)n2cncn2)cc1 [letrozole, 4,4′-(1H-1,2,4-triazol-1-ylmethylene)bis-benzonitrile]
mean reduction of plasma levels of letrozole vs single agent letrozole [1]: 37%

effect of race of patient on ADME or PK [2]: unexpected
effect of sex of patient on ADME or PK [2]: no known effect
overall time to steady state ([3]; in vivo): 4-6 weeks
half-life ([3]; in vivo, read-out: distribution t1/2 (time) (converted)): 4 h
half-life ([3]; in vivo, read-out: elimination t1/2 (time) (converted)): 120 h
clearance ([3]; in vivo, read-out: total clearance (volume/unit time) (converted)): 83.3 mL/min
Tmax ([3]; plasma, oral): 3 h
induction of primary metabolizing enzyme [4]: no
plasma levels affected by known inducers of cytochrome p-450 enzyme system [4]: yes
primary enzyme(s) of metabolism [4]: CYP3A4
primary metabolite active [4]: yes
significant pre-systemic metabolism [4]: no
direct inhibition of primary mechanism by combination drug [5]: no
feedback stimulation on combination drug's primary mechanism [5]: yes
Absorption: influenced by food [6]: no
Absorption: route [6]: oral
principal plasma binding protein(s) [7]: albumin
fraction unbound ([7]; plasma): < 0.005
enterohepatic circulation [8]: yes
primary route of elimination [8]: fecal
enterohepatic circulation ([8]; listed as toremifene): subject to enterohepatic circulation
Compound: CN(C)CCOc1ccc(/C(=C(/CCCl)c2ccccc2)c2ccccc2)cc1 [Toremifene, (Z)-2-[4-(4-chloro-1,2-diphenyl-1-butenyl)phenoxy]-N,N-dimethylethanamine]
